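Tested at 5 concentrations; 48 h exposure; 96-well plates; endpoints linearly interpolated, else capped at highest concentration. TGI is the concentration that stops growth completely.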
How the values were obtained:
Experiment in all cases: DTP human tumour cell line panel, 48 h
[1] = tested on: MOLT-4 leukemia
[2] = tested on: HL-60(TB) leukemia
[3] = tested on: SF-295 CNS
[4] = tested on: ACHN renal
[5] = tested on: HOP-18 NSCLC
[6] = tested on: SF-268 CNS
[7] = tested on: SK-MEL-5 melanoma
[8] = tested on: CCRF-CEM leukemia
[9] = tested on: HOP-92 NSCLC
[10] = tested on: SK-MEL-28 melanoma
[11] = tested on: DMS 114 small cell lung
[12] = tested on: HCT-116 colon
[13] = tested on: MALME-3M melanoma
[14] = tested on: A498 renal
[15] = tested on: OVCAR-5 ovarian
[16] = tested on: HCT-15 colon
[17] = tested on: CAKI-1 renal
[18] = tested on: OVCAR-3 ovarian
[19] = tested on: OVCAR-4 ovarian
[20] = tested on: M14 melanoma
[21] = tested on: KM20L2 colon
[22] = tested on: TK-10 renal
[23] = tested on: RXF-631 renal
[24] = tested on: 786-0 renal
[25] = tested on: KM12 colon
[26] = tested on: EKVX NSCLC
[27] = tested on: HCC-2998 colon
[28] = tested on: SK-OV-3 ovarian
[29] = tested on: NCI-H226 lung
[30] = tested on: SNB-19 CNS
[31] = tested on: IGROV1 ovarian
[32] = tested on: UO-31 renal
[33] = tested on: M19-MEL melanoma
[34] = tested on: SNB-78 CNS
[35] = tested on: SW-620 colon
[36] = tested on: NCI-H23 lung
[37] = tested on: COLO 205 colon
[38] = tested on: HT29 colon
[39] = tested on: UACC-257 melanoma
[40] = tested on: DLD-1 colon
[41] = tested on: NCI-H460 lung
[42] = tested on: SN12C renal
[43] = tested on: U251 CNS
[44] = tested on: LXFL 529 NSCLC
[45] = tested on: SF-539 CNS
[46] = tested on: SNB-75 CNS
[47] = tested on: OVCAR-8 ovarian
[48] = tested on: K-562 leukemia
[49] = tested on: UACC-62 melanoma
[50] = tested on: A549 NSCLC
[51] = tested on: HOP-62 NSCLC
[52] = tested on: NCI-H522 lung
[53] = tested on: RPMI-8226 leukemia
[54] = tested on: LOX IMVI melanoma
[55] = tested on: XF 498 CNS
[56] = tested on: SK-MEL-2 melanoma
[57] = tested on: SR leukemia
[58] = tested on: RXF 393 renal
[59] = tested on: DMS 273 small cell lung

Measured: TGI

CCN(CC)c1c(C)nnn1C1OC(COC(C)=O)C(OC(C)=O)C(OC(C)=O)C1OC(C)=O (stereo not drawn)
31.3 µM: [35]
78.3 µM: [53]
not listed: [54] | [55] | [56] | [57] | [58] | [59]
> 100 µM: all other assays above

Cc1cc(Br)ccc1N=Nc1c(C)nn(-c2ccccc2)c1-c1ccccc1
not listed: [21] | [23] | [27] | [29]
> 100 µM: all other assays above
